These are literature values, as cited in US10919926B2, “Compound or salt thereof, natural killer T cell activator, and pharmaceutical composition” (KEIO UNIVERSITY, priority 2016, dated 2021).

SMILES strings stand for the structures.

The data set deals with RBL-CD1d cells and NKT hybridoma 2E10 cells. To be noted: previously known.

Take `CCCCCCCCCCCCCCCCCCCCCCCCCC(=O)N[C@@H](CO[C@H]1O[C@H](CO)[C@H](O)[C@H](O)[C@H]1O)[C@H](O)[C@H](O)CCCCCCCCCCCCCC` [α-GalCer, α-galactosylceramide]: the “cytokine-inducing capacity compared with β-GalCer and C19” value was “higher than β-GalCer and C19”.
